In US12110305B2, “Prodrugs of phosphonamide nucleotide analogues and their pharmaceutical use” (priority 2020, dated 2024):
pEC50: −log10 of the molar value.

tested on: HIV-1 (IIIB); test: Antiviral (HIV) assay in MT-4 cells; assay type: cell-based; conditions: HIV-1 IIIB in MT-4 cells, 5 days incubation, Cell Titer Glo; average of at least two independent experiments; read-out: MT4 HIV EC50
Description: Example 104: Antiviral (HIV) Assay in MT-4 Cells
Compounds were tested in a high-throughput 384-well assay format for their ability to inhibit the replication of HIV-1 (IIIB) in MT-4 cells. Compounds were serially diluted (1:3) in DMSO on 384-well polypropylene plates and further diluted 200-fold into complete RPMI media (10% FBS, 1% P/S) using the Biotek Micro Flow and Labcyte ECHO acoustic dispenser. Each plate contained up to 8 test compounds, with negative (no drug) and positive (5 μM AZT) controls. MT-4 cells were pre-treated with 10 μL of either RPMI (mock-infected) or a fresh 1:250 dilution of HIV-1 IIIB concentrated virus stock. Infected and uninfected MT-4 cells were further diluted in complete RPMI media and added to each plate using a Micro Flow dispenser. After 5 days incubation in a humidified and temperature-controlled incubator (37° C.), Cell Titer Glo (Promega) was added to the assay plates and chemiluminescence read using an Envision plate-reader. EC50 values were defined as the compound concentration that causes a 50% decrease in luminescence signal and were calculated using a sigmoidal dose-response model to generate curve fits and are shown in Table 1.

`CCC(CC)COC(=O)C(C)(C)N[P@](=O)(CO[C@H](C)Cn1cnc2c(N)ncnc21)NC1(C(=O)OCC(CC)CC)CC1` [Example 71, 2-Ethylbutyl 1-(((R)-((((R)-1-(6-amino-9H-purin-9-yl)propan-2-yl)oxy)methyl)((1-(2-ethylbutoxy)-2-methyl-1-oxopropan-2-l)amino)phosphoryl)amino)cyclopropane-1-carboxylate] showed a pEC50 of 6.63.

same assay, conditions: Human immunodeficiency virus 1, MT4, 120 h; HIV-1 IIIB in MT-4 cells, 5 days incubation, Cell Titer Glo; average of at least two independent experiments

Point of comparison: `CC(C)CCCCOC(=O)C(C)(C)NP(=O)(CO[C@H](C)Cn1cnc2c(N)ncnc21)NC(C)(C)C(=O)OCCCCC(C)C` [Example 68, Bis(5-methylhexyl) 2,2′-(((((1-(6-amino-9H-purin-9-yl)propan-2-yl)oxy)methyl)phosphoryl)bis(azanediyl))(R)-bis(2-methylpropanoate)], pEC50 8.05. Against it:
- C[C@H](Cn1cnc2c(N)ncnc21)OCP(=O)(NC(C)(C)C(=O)O[C@H](C)C1CCCCC1)NC(C)(C)C(=O)O[C@H](C)C1CCCCC1 [Example 55, Bis((R)-1-cyclohexylethyl) 2,2′-((((((R)-1-(6-amino-9H-purin-9-yl)propan-2-yl)oxy)methyl)phosphoryl)bis(azanediyl))bis(2-methylpropanoate)] — 1.05 log units lower, 7.00
- C[C@H](Cn1cnc2c(N)ncnc21)OCP(=O)(NC(C)(C)C(=O)O[C@@H](C)C1CCCCC1)NC(C)(C)C(=O)O[C@@H](C)C1CCCCC1 [Example 56, Bis((S)-1-cyclohexylethyl) 2,2′-((((((R)-1-(6-amino-9H-purin-9-yl)propan-2-yl)oxy)methyl)phosphoryl)bis(azanediyl))bis(2-methylpropanoate)] — 1.30 log units lower, 6.75
- C[C@H](Cn1cnc2c(N)ncnc21)OCP(=O)(NC(C)(C)C(=O)OCC1CC2(C1)CC1(CCC1)C2)NC(C)(C)C(=O)OCC1CC2(C1)CC1(CCC1)C2 [Example 57, Bis(dispiro[3.1.3^6.1^4]decan-2-ylmethyl) 2,2′-(((((1-(6-amino-9H-purin-9-yl)propan-2-yl)oxy)methyl)phosphoryl)bis(azanediyl))(R)-bis(2-methylpropanoate)] — 0.41 log units lower, 7.64
- C[C@H](Cn1cnc2c(N)ncnc21)OCP(=O)(NC(C)(C)C(=O)OCC1CC2(C1)CC(F)(F)C2)NC(C)(C)C(=O)OCC1CC2(C1)CC(F)(F)C2 [Example 58, Bis((6,6-difluorospiro[3.3]heptan-2-yl)methyl) 2,2′-(((((1-(6-amino-9H-purin-9-yl)propan-2-yl)oxy)methyl)phosphoryl)bis(azanediyl))(R)-bis(2-methylpropanoate)] — 0.25 log units higher, 8.30
- C[C@H](Cn1cnc2c(N)ncnc21)OCP(=O)(NC(C)(C)C(=O)OCC12CC3CC(CC(C3)C1)C2)NC(C)(C)C(=O)OCC12CC3CC(CC(C3)C1)C2 [Example 59, Bis(((1S,3S)-adamantan-1-yl)methyl) 2,2′-((((((R)-1-(6-amino-9H-purin-9-yl)propan-2-yl)oxy)methyl)phosphoryl)bis(azanediyl))bis(2-methylpropanoate)] — 0.72 log units lower, 7.33
- C[C@H](Cn1cnc2c(N)ncnc21)OCP(=O)(NC(C)(C)C(=O)O[C@@H]1C[C@@H]2C[C@@H]2C1)NC(C)(C)C(=O)O[C@@H]1C[C@@H]2C[C@@H]2C1 [Example 60, Di((1R,3R,5S)-bicyclo[3.1.0]hexan-3-yl) 2,2′-((((((R)-1-(6-amino-9H-purin-9-yl)propan-2-yl)oxy)methyl)phosphoryl)bis(azanediyl))bis(2-methylpropanoate)] — 0.47 log units higher, 8.52
- C[C@H](Cn1cnc2c(N)ncnc21)OCP(=O)(NC(C)(C)C(=O)OC1CCC2(CCCC2)CC1)NC(C)(C)C(=O)OC1CCC2(CCCC2)CC1 (stereo partly drawn) [Example 61, Di(spiro[4.5]decan-8-yl) 2,2′-(((((1-(6-amino-9H-purin-9-yl)propan-2-yl)oxy)methyl)phosphoryl)bis(azanediyl))(R)-bis(2-methylpropanoate)] — 0.50 log units lower, 7.55
- C[C@H](Cn1cnc2c(N)ncnc21)OCP(=O)(NC(C)(C)C(=O)OCCC12CC(C1)C2)NC(C)(C)C(=O)OCCC12CC(C1)C2 [Example 62, Bis(2-(bicyclo[1.1.1]pentan-1-yl)ethyl) 2,2′-(((((1-(6-amino-9H-purin-9-yl)propan-2-yl)oxy)methyl)phosphoryl)bis(azanediyl))(R)-bis(2-methylpropanoate)] — within 0.2 log units, 8.15
- C[C@H](Cn1cnc2c(N)ncnc21)OCP(=O)(NC(C)(C)C(=O)OC1CCC2(CCC2)CC1)NC(C)(C)C(=O)OC1CCC2(CCC2)CC1 (stereo partly drawn) [Example 63, Di(spiro[3.5]nonan-7-yl) 2,2′-(((((1-(6-amino-9H-purin-9-yl)propan-2-yl)oxy)methyl)phosphoryl)bis(azanediyl))(R)-bis(2-methylpropanoate)] — within 0.2 log units, 8.15
- CCCCCCOC(=O)C(NP(=O)(CO[C@H](C)Cn1cnc2c(N)ncnc21)NC(C(=O)OCCCCCC)(C1CC1)C1CC1)(C1CC1)C1CC1 [Example 64, Dihexyl 2,2′-(((((1-(6-amino-9H-purin-9-yl)propan-2-yl)oxy)methyl)phosphoryl)bis(azanediyl))(R)-bis(2,2-dicyclopropylacetate)] — lower, < 6.30
- CCCCCCOC(=O)C(CC)(CC)NP(=O)(CO[C@H](C)Cn1cnc2c(N)ncnc21)NC(CC)(CC)C(=O)OCCCCCC [Example 65, Dihexyl 2,2′-(((((1-(6-amino-9H-purin-9-yl)propan-2-yl)oxy)methyl)phosphoryl)bis(azanediyl))(R)-bis(2-ethylbutanoate)] — lower, < 6.30
- CCCCCCCOC(=O)C(C)(C)NP(=O)(CO[C@H](C)Cn1cnc2c(N)ncnc21)NC(C)(C)C(=O)OCCCCCCC [Example 66, Diheptyl 2,2′-(((((1-(6-amino-9H-purin-9-yl)propan-2-yl)oxy)methyl)phosphoryl)bis(azanediyl))(R)-bis(2-methylpropanoate)] — the same, 8.05
- CCCC(CCC)COC(=O)C(C)(C)NP(=O)(CO[C@H](C)Cn1cnc2c(N)ncnc21)NC(C)(C)C(=O)OCC(CCC)CCC [Example 69, Bis(2-propylpentyl) 2,2′-(((((1-(6-amino-9H-purin-9-yl)propan-2-yl)oxy)methyl)phosphoryl)bis(azanediyl))(R)-bis(2-methylpropanoate)] — 0.43 log units lower, 7.62
- CCC(CC)COC(=O)C1(NP(=O)(CO[C@H](C)Cn2cnc3c(N)ncnc32)NC2(C(=O)OCC(CC)CC)CC2)CC1 [Example 70, Bis(2-ethylbutyl) 1,1′-(((((1-(6-amino-9H-purin-9-yl)propan-2-yl)oxy)methyl)phosphoryl)bis(azanediyl))(R)-bis(cyclopropane-1-carboxylate)] — lower, < 6.30
- CCC(CC)COC(=O)C(C)(C)N[P@@](=O)(CO[C@H](C)Cn1cnc2c(N)ncnc21)NC1(C(=O)OCC(CC)CC)CC1 [Example 72, 2-Ethylbutyl 1-(((S)-((((R)-1-(6-amino-9H-purin-9-yl)propan-2-yl)oxy)methyl)((1-(2-ethylbutoxy)-2-methyl-1-oxopropan-2-yl)amino)phosphoryl)amino)cyclopropane-1-carboxylate] — 0.25 log units lower, 7.80
- CCCCCCOC(=O)C(C)(C)NP(=O)(CO[C@H](C)Cn1cnc2c(N)ncnc21)NC(C)(C)C(=O)OCC12CC(C1)C2 (stereo partly drawn) [Example 77, Bicyclo[1.1.1]pentan-1-ylmethyl 2-((((((R)-1-(6-amino-9H-purin-9-yl)propan-2-yl)oxy)methyl)((1-(hexyloxy)-2-methyl-1-oxopropan-2-yl)amino)phosphoryl)amino)-2-methylpropanoate] — lower, < 6.30
- CCCCCCOC(=O)C(C)(C)NP(=O)(CO[C@H](C)Cn1cnc2c(N)ncnc21)NC(C)(C)C(=O)OCC1(F)CC1 (stereo partly drawn) [Example 78, (1-Fluorocyclopropyl)methyl 2-((((((R)-1-(6-amino-9H-purin-9-yl)propan-2-yl)oxy)methyl)((1-(hexyloxy)-2-methyl-1-oxopropan-2-yl)amino)phosphoryl)amino)-2-methylpropanoate] — lower, < 6.30
- CCCCCCOC(=O)C(C)(C)NP(=O)(CO[C@H](C)Cn1cnc2c(N)ncnc21)NC(C)(C)C(=O)OCC(C)(C)OC (stereo partly drawn) [Example 79, Hexyl 2-((((((R)-1-(6-amino-9H-purin-9-yl)propan-2-yl)oxy)methyl)((1-(2-methoxy-2-methylpropoxy)-2-methyl-1-oxopropan-2-yl)amino)phosphoryl)amino)-2-methylpropanoate] — 1.48 log units lower, 6.57
- CCCCCCOC(=O)C(C)(C)NP(=O)(CO[C@H](C)Cn1cnc2c(N)ncnc21)NC(C)(C)C(=O)OCC12CCC(CC1)C2 (stereo partly drawn) [Example 80, Bicyclo[2.2.1]heptan-1-ylmethyl 2-((((((R)-1-(6-amino-9H-purin-9-yl)propan-2-yl)oxy)methyl)((1-(hexyloxy)-2-methyl-1-oxopropan-2-yl)amino)phosphoryl)amino)-2-methylpropanoate] — lower, < 6.30
- CCCCCCOC(=O)C(C)(C)NP(=O)(CO[C@H](C)Cn1cnc2c(N)ncnc21)NC(C)(C)C(=O)OC(C)C1CC1 (stereo partly drawn) [Example 81, 1-Cyclopropylethyl 2-((((((R)-1-(6-amino-9H-purin-9-yl)propan-2-yl)oxy)methyl)((1-(hexyloxy)-2-methyl-1-oxopropan-2-yl)amino)phosphoryl)amino)-2-methylpropanoate] — lower, < 6.30
- CCCCCCOC(=O)C(C)(C)NP(=O)(CO[C@H](C)Cn1cnc2c(NCc3oc(=O)oc3C)ncnc21)NC(C)(C)C(=O)OCCCCCC [Example 82, Dihexyl 2,2′-(((((1-(6-(((5-methyl-2-oxo-1,3-dioxol-4-yl)methyl)amino)-9H-purin-9-yl)propan-2-yl)oxy)methyl)phosphoryl)bis(azanediyl))(R)-bis(2-methylpropanoate)] — 1.59 log units lower, 6.46
